# From patent US11242312B2, “Dipeptidyl ketoamide meta-methoxyphenyl derivatives and uses thereof” (LANDSTEINER GENMED, S.L., priority 2018, dated 2022)
# Molecular target: calpain 1 (Homo sapiens (Human), UniProt P07384)
# Assay: Assay for the determination of the capacity to inhibit calpain 1 (Calpain-Glo Protease kit)
# Type: biochemical
# Settings: Calpain-Glo luminescence; 16 ng/mL calpain 1; at least 6 concentrations; read-out: Calpain 1 inhibitory activity IC50
# Procedure: Assay for the Determination of the Capacity to Inhibit Calpain 1
# Activity of Calpain 1 was measured by using Calpain-Glo Protease kit from Promega. Assays were run in 384-well black plates with clear bottom. 5 μl of compounds in a 10 mM HEPES and 1 mM EDTA aqueous solution were incubated with 15 μL of a solution of 16 ng/mL calpain 1 (Sigma Aldrich) for 2 minutes and then 20 μL of Calpain-Glo™ Reagent provided in the kit were added to each well. Luminiscence elicited by calpain 1-induced substrate lysis was measured in a Hamamatsu FDSS 7000 reader and data was calculated from the maximal luminescence peak. Calpain inhibition was calculated from the formula: % inhibition=[…]; wherein LT is the luminescence observed in the tested compound, LB is blank luminescence obtained from a well without calpain 1 and LC is the luminescence observed in control wells including calpain1 in the absence of inhibitor.
# All compounds were tested using, at least, 6 concentrations to allow calculate the IC50 (concentration that inhibits the activity of calpain 1 by 50%).
# Calpastatin and ALLN were included as control inhibitors in all the assays.
# Sequence of calpain 1 (P07384 whole entry): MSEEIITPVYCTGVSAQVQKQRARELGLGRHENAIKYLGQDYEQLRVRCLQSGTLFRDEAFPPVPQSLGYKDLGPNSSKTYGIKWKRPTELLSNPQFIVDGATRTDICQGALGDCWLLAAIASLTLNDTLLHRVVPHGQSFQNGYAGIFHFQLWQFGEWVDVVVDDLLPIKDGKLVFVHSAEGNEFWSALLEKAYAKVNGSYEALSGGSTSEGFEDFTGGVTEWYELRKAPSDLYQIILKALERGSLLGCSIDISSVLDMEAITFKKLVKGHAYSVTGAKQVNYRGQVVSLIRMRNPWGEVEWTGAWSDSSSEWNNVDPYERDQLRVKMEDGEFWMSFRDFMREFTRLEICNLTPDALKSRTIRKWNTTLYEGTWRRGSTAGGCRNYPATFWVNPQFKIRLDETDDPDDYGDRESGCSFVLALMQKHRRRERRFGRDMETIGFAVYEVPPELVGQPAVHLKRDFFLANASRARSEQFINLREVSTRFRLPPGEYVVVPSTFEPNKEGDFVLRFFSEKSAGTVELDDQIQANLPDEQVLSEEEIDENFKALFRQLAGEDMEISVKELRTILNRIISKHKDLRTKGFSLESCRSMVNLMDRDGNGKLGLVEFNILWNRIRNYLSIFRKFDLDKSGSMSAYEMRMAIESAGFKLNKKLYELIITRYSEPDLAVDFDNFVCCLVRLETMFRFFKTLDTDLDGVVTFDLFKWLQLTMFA
# Sequence of calpain 1 (P04632 whole entry partner): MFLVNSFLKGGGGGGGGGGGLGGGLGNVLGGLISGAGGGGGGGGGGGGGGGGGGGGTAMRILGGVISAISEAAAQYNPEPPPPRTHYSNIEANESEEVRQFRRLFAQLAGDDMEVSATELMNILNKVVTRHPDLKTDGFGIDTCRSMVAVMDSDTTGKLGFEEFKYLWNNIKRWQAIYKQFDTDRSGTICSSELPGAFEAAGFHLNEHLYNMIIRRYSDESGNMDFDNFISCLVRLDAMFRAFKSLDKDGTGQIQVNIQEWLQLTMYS
row,Compound,IC50 [nM]
1,"COc1ccc(C(=O)N[C@@H](CC(C)C)C(=O)N[C@@H](Cc2ccccc2)C(=O)C(=O)NC2CC2)cc1 [Comp. Example 5, N-((S)-1-(((S)-4-(cyclopropylamino)-3,4-dioxo-1-phenylbutan-2-yl)amino)-4-methyl-1-oxopentan-2-yl)-4-methoxybenzamide, reference compound]",255
2,"COc1ccccc1C(=O)N[C@@H](CC(C)C)C(=O)N[C@@H](Cc1ccccc1)C(=O)C(=O)NC1CC1 [Comp. Example 6, N-((S)-1-(((S)-4-(cyclopropylamino)-3,4-dioxo-1-phenylbutan-2-yl)amino)-4-methyl-1-oxopentan-2-yl)-2-methoxybenzamide, reference compound]",110
3,"COc1cccc(C(=O)N[C@H](C(=O)NC(Cc2ccccc2)C(=O)C(=O)NC2CC2)C(C)C)c1 (stereo partly drawn) [Example 2, N-((S)-1-((4-(cyclopropylamino)-3,4-dioxo-1-phenylbutan-2-yl)amino)-3-methyl-1-oxobutan-2-yl)-3-methoxybenzamide]",2.2
4,"CONC(=O)C(=O)C(Cc1ccccc1)NC(=O)[C@H](CC1CC1)NC(=O)c1cccc(OC)c1 (stereo partly drawn) [Example 4, N-((S)-3-cyclopropyl-1-((4-(methoxyamino)-3,4-dioxo-1-phenylbutan-2-yl)amino)-1-oxopropan-2-yl)-3-methoxybenzamide]",7.1

# Stronger by IC50, values ahead:
row,IC50 [nM],Compound
1,0.03,"COc1cccc(C(=O)N[C@@H](CC(C)C)C(=O)N[C@@H](Cc2ccccc2)C(=O)C(=O)NC2CC2)c1 [Example 1, N-((S)-1-(((S)-4-(cyclopropylamino)-3,4-dioxo-1-phenylbutan-2-yl)amino)-4-methyl-1-oxopentan-2-yl)-3-methoxybenzamide]"
2,0.008,"COc1cccc(C(=O)N[C@@H](CC2CC2)C(=O)NC(Cc2ccccc2)C(=O)C(=O)NC2CC2)c1 (stereo partly drawn) [Example 3, N-((S)-3-cyclopropyl-1-((4-(cyclopropylamino)-3,4-dioxo-1-phenylbutan-2-yl)amino)-1-oxopropan-2-yl)-3-methoxybenzamide]"
